Source: patent US20250092065A1, “2-(INDAZOL-5-YL)-6-(PIPERIDIN-4-YL)-1,7-NAPHTHYRIDINE DERIVATIVES AND RELATED COMPOUNDS AS MODULATORS FOR SPLICING NUCLEIC ACIDS AND FOR THE TREATMENT OF PROLIFERATIVE DISEASES” (REMIX THERAPEUTICS INC., priority 2022, published 2025)
Where two headings read alike, the source gives them in different places.

Assays:
Format in all cases: cell-based, human
HTT mRNA = assay: RT-qPCR splicing assay, HTT mRNA canonical (CJ) and alternative (AJ) junction; conditions: Homo sapiens; for AC50: HTT alternative junction mRNA, read-out: HTT AJ (increase in AJ mRNA, AC50)
Method in brief: (§1)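 A673 or K562 cells treated 24 h at 37 °C with 11-point 3-fold dilutions (top final 10 uM, DMSO ≤0.25%). Lysates analysed by one-step RT-qPCR for canonical (CJ) and alternative-exon (AJ) junctions, normalized to GAPDH, GUSB or PPIA. ΔΔCt vs DMSO, RQ = 2^(−ΔΔCt), expressed as percentage response.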

SMN2 mRNA = assay: RT-qPCR splicing assay, SMN2 mRNA; conditions: Homo sapiens, canonical junction qPCR panel, Table 4; read-out: SMN2 IC50 (decrease in CJ mRNA levels)
Method in brief: as §1

Target C = assay: HiBiT protein abundance assay, Target C (K562 HiBiT knock-in); conditions: HiBiT knock-in K562 cells, 24 hours, top dose 10 μM
Method in brief: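 K562 HiBiT knock-in cells (10000/well) were treated 24 h at 37° C with a 10-point 3-fold dilution series (top 10 μM final, ≤0.25% DMSO). HiBiT luminescence was read after lytic LgBiT detection. Percent response used unmodified K562 and DMSO-treated knock-in controls, and IC50 came from a four-parameter fit at 50% of untreated.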

MYB = assay: HiBiT protein abundance assay, MYB (K562 HiBiT knock-in); conditions: HiBiT knock-in K562 cells, 24 hours, top dose 10 μM
Method in brief: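 Luminescence readout: Nano-Glo HiBiT lytic detection after 24 h compound exposure of K562 HiBiT knock-in cells, 10000 cells/well. Dosing 10-pt, 3-fold, top 10 μM final. % response vs untreated parental K562 and DMSO controls; 4PL fit, IC50 = concentration giving 50% protein abundance.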

[1] = HTT canonical junction mRNA, RT-qPCR, read-out: HTT CJ (decrease in CJ mRNA levels, IC50)
[2] = canonical junction qPCR panel, Table 4, read-out: HTT IC50 (decrease in CJ mRNA levels)

## C[C@H]1C[C@H](c2ccc3nc(-c4cc5cn(C)nc5c(F)c4O)ccc3n2)CCN1 (single isomer, unassigned) [Compound 356]
HTT mRNA; RT-qPCR
  AC50: < 100 nM
HTT mRNA; [1]
  IC50: < 100 nM
HTT mRNA; [2]
  IC50: < 100 nM
SMN2 mRNA
  IC50: < 100 nM
Target C
  IC50: < 100 nM
MYB
  IC50: < 100 nM

## Cc1c(O)c(-c2ccc3nc(N4CC[C@H](N[C@H]5C[C@H](F)C5)C4)ccc3n2)cc2cn(C)nc12 (single isomer, unassigned) [Compound 358]
HTT mRNA; RT-qPCR
  AC50: < 100 nM
HTT mRNA; [1]
  IC50: < 100 nM
HTT mRNA; [2]
  IC50: < 100 nM
SMN2 mRNA
  IC50: < 100 nM
Target C
  IC50: < 100 nM
MYB
  IC50: < 100 nM

## Cn1cc2cc(-c3ccc4nc(N5CC[C@@H](N)C5)ccc4n3)c(O)c(F)c2n1 (single isomer, unassigned) [Compound 362]
HTT mRNA; RT-qPCR
  AC50: < 100 nM
HTT mRNA; [1]
  IC50: < 100 nM
HTT mRNA; [2]
  IC50: < 100 nM
SMN2 mRNA
  IC50: < 100 nM
Target C
  IC50: < 100 nM
MYB
  IC50: < 100 nM

## CN[C@@H]1CCN(c2ccc3nc(-c4cc5cn(C)nc5c(C)c4O)ncc3n2)C1 (single isomer, unassigned) [Compound 368]
HTT mRNA; RT-qPCR
  AC50: 100 to 1000 nM
HTT mRNA; [1]
  IC50: 100 to 1000 nM
HTT mRNA; [2]
  IC50: 100 to 1000 nM
SMN2 mRNA
  IC50: < 100 nM
Target C
  IC50: 100 to 1000 nM
MYB
  IC50: < 100 nM

## CN[C@H]1CCN(c2ccc3nc(-c4cc5cn(C)nc5c(C)c4O)ncc3n2)C1 (single isomer, unassigned) [Compound 369]
HTT mRNA; RT-qPCR
  AC50: 100 to 1000 nM
HTT mRNA; [1]
  IC50: 100 to 1000 nM
HTT mRNA; [2]
  IC50: 100 to 1000 nM
SMN2 mRNA
  IC50: < 100 nM
Target C
  IC50: 100 to 1000 nM
MYB
  IC50: < 100 nM

## Cc1nc2c(F)c(O)c(-c3ccc4nc(N5CC[C@H](NC6(CF)CC6)C5)ccc4n3)cc2o1 (single isomer, unassigned) [Compound 373]
HTT mRNA; RT-qPCR
  AC50: < 100 nM
HTT mRNA; [1]
  IC50: < 100 nM
HTT mRNA; [2]
  IC50: < 100 nM
SMN2 mRNA
  IC50: < 100 nM
Target C
  IC50: < 100 nM
MYB
  IC50: < 100 nM

## Cc1nc2c(C)c(O)c(-c3ccc4nc(N5CC[C@H](NC6(CF)CC6)C5)ccc4n3)cc2o1 (single isomer, unassigned) [Compound 378]
HTT mRNA; RT-qPCR
  AC50: < 100 nM
HTT mRNA; [1]
  IC50: < 100 nM
HTT mRNA; [2]
  IC50: < 100 nM
SMN2 mRNA
  IC50: < 100 nM
Target C
  IC50: < 100 nM
MYB
  IC50: < 100 nM

## Cc1nc2c(C)c(O)c(-c3ccc4nc(N5CC[C@@H](NC6(CF)CC6)C5)ccc4n3)cc2o1 (single isomer, unassigned) [Compound 379]
HTT mRNA; RT-qPCR
  AC50: 100 to 1000 nM
HTT mRNA; [1]
  IC50: < 100 nM
HTT mRNA; [2]
  IC50: < 100 nM
SMN2 mRNA
  IC50: < 100 nM
Target C
  IC50: 100 to 1000 nM
MYB
  IC50: < 100 nM

## Cn1cc2cc(-c3ncc4nc(N5CC[C@@H](N)C5)ccc4n3)c(O)c(F)c2n1 (single isomer, unassigned) [Compound 380]
HTT mRNA; RT-qPCR
  AC50: 100 to 1000 nM
HTT mRNA; [1]
  IC50: < 100 nM
HTT mRNA; [2]
  IC50: < 100 nM
SMN2 mRNA
  IC50: < 100 nM
Target C
  IC50: 100 to 1000 nM
MYB
  IC50: < 100 nM

## C[C@H]1C[C@@H](c2ccc3nc(-c4cc5cn(C)nc5c(F)c4O)ccc3n2)CCN1 (single isomer, unassigned) [Compound 383]
HTT mRNA; RT-qPCR
  AC50: < 100 nM
HTT mRNA; [1]
  IC50: < 100 nM
HTT mRNA; [2]
  IC50: < 100 nM
SMN2 mRNA
  IC50: < 100 nM
Target C
  IC50: < 100 nM
MYB
  IC50: < 100 nM

## Cn1cc2cc(-c3ccc4nc(C5CCNC[C@H]5O)ccc4n3)c(O)cc2n1 (single isomer, unassigned) [Compound 386]
HTT mRNA; RT-qPCR
  AC50: > 10000 nM
HTT mRNA; [1]
  IC50: > 10000 nM
HTT mRNA; [2]
  IC50: > 10000 nM
SMN2 mRNA
  IC50: < 100 nM
Target C
  IC50: 1000 to 10000 nM
MYB
  IC50: 100 to 1000 nM

## Cn1cc2cc(-c3ccc4nc(N5CC[C@@H](NC(C)(C)C)C5)ccc4n3)c(O)c(F)c2n1 (single isomer, unassigned) [Compound 391]
HTT mRNA; RT-qPCR
  AC50: < 100 nM
HTT mRNA; [1]
  IC50: < 100 nM
HTT mRNA; [2]
  IC50: < 100 nM
SMN2 mRNA
  IC50: < 100 nM
Target C
  IC50: < 100 nM
MYB
  IC50: < 100 nM

## Cn1cc2cc(-c3ccc4nc(N5CC[C@H](NC(C)(C)C)C5)ccc4n3)c(O)c(F)c2n1 (single isomer, unassigned) [Compound 392]
HTT mRNA; RT-qPCR
  AC50: < 100 nM
HTT mRNA; [1]
  IC50: < 100 nM
HTT mRNA; [2]
  IC50: < 100 nM
SMN2 mRNA
  IC50: < 100 nM
Target C
  IC50: < 100 nM
MYB
  IC50: < 100 nM

## Cc1c(O)c(-c2ncc3nc([C@@H]4CCNC4)ccc3n2)cc2cn(C)nc12 (single isomer, unassigned) [Compound 398]
HTT mRNA; RT-qPCR
  AC50: 1000 to 10000 nM
HTT mRNA; [1]
  IC50: 1000 to 10000 nM
HTT mRNA; [2]
  IC50: 1000 to 10000 nM
SMN2 mRNA
  IC50: < 100 nM
Target C
  IC50: 1000 to 10000 nM
MYB
  IC50: 100 to 1000 nM

## Cc1nc2c(C)c(O)c(-c3ccc4nc(N5CC[C@@H](NC6CC6)C5)ncc4n3)cc2o1 (single isomer, unassigned) [Compound 432]
HTT mRNA; RT-qPCR
  AC50: < 100 nM
HTT mRNA; [1]
  IC50: < 100 nM
HTT mRNA; [2]
  IC50: < 100 nM
SMN2 mRNA
  IC50: < 100 nM
Target C
  IC50: < 100 nM
MYB
  IC50: 100 to 1000 nM

## Cc1nc2cc(O)c(-c3ccc4nc(N5CC[C@@H](NC6CC6)C5)ncc4n3)cc2o1 (single isomer, unassigned) [Compound 434]
HTT mRNA; RT-qPCR
  AC50: < 100 nM
HTT mRNA; [1]
  IC50: < 100 nM
HTT mRNA; [2]
  IC50: < 100 nM
SMN2 mRNA
  IC50: < 100 nM
Target C
  IC50: < 100 nM
MYB
  IC50: 100 to 1000 nM

## Cc1nc2c(C)c(O)c(-c3ccc4cc(N5CC[C@@H](NC(C)(C)C)C5)ncc4n3)cc2o1 (single isomer, unassigned) [Compound 444]
HTT mRNA; RT-qPCR
  AC50: 100 to 1000 nM
HTT mRNA; [1]
  IC50: < 100 nM
HTT mRNA; [2]
  IC50: < 100 nM
SMN2 mRNA
  IC50: < 100 nM
Target C
  IC50: 100 to 1000 nM
MYB
  IC50: < 100 nM

## Cc1nc2c(C)c(O)c(-c3ccc4cc(N5CC[C@H](NC(C)(C)C)C5)ncc4n3)cc2o1 (single isomer, unassigned) [Compound 445]
HTT mRNA; RT-qPCR
  AC50: 1000 to 10000 nM
HTT mRNA; [1]
  IC50: 1000 to 10000 nM
HTT mRNA; [2]
  IC50: 1000 to 10000 nM
SMN2 mRNA
  IC50: 100 to 1000 nM
Target C
  IC50: 1000 to 10000 nM
MYB
  IC50: 100 to 1000 nM

## Cc1nc2cc(O)c(-c3ccc4nc(N5CC[C@@H](NC6(CF)CC6)C5)ccc4n3)cc2o1 (single isomer, unassigned) [Compound 488]
HTT mRNA; RT-qPCR
  AC50: < 100 nM
HTT mRNA; [1]
  IC50: < 100 nM
HTT mRNA; [2]
  IC50: < 100 nM
SMN2 mRNA
  IC50: < 100 nM
Target C
  IC50: < 100 nM
MYB
  IC50: 100 to 1000 nM

## Cc1nc2cc(O)c(-c3ccc4nc(N5CC[C@H](NC6(CF)CC6)C5)ccc4n3)cc2o1 (single isomer, unassigned) [Compound 489]
HTT mRNA; RT-qPCR
  AC50: < 100 nM
HTT mRNA; [1]
  IC50: < 100 nM
HTT mRNA; [2]
  IC50: < 100 nM
SMN2 mRNA
  IC50: < 100 nM
Target C
  IC50: < 100 nM
MYB
  IC50: < 100 nM

## Cc1nc2c(F)c(O)c(-c3ccc4nc(N5CC[C@@H](NC6(CF)CC6)C5)ccc4n3)cc2o1 (single isomer, unassigned) [Compound 491]
HTT mRNA; RT-qPCR
  AC50: < 100 nM
HTT mRNA; [1]
  IC50: < 100 nM
HTT mRNA; [2]
  IC50: < 100 nM
SMN2 mRNA
  IC50: < 100 nM
Target C
  IC50: < 100 nM
MYB
  IC50: < 100 nM

## Cn1cc2cc(-c3ccc4nc(N5CCC(NC6(CF)CC6)C5)ccc4n3)c(O)c(F)c2n1 (stereo in doubt) [Compound 353, 7-fluoro-5-{6-[(3R)-3-{[1-(fluoromethyl)cyclopropyl]amino}pyrrolidin-1-yl]-1,5-naphthyridin-2-yl}-2-methylindazol-6-ol]
HTT mRNA; RT-qPCR
  AC50: < 100 nM
HTT mRNA; [1]
  IC50: < 100 nM
HTT mRNA; [2]
  IC50: < 100 nM
SMN2 mRNA
  IC50: < 100 nM
Target C
  IC50: < 100 nM
MYB
  IC50: < 100 nM
